This note sets out measurements from patent publication US20230115208A1, “RING-FUSED THIAZOLINO 2-PYRIDONES, METHODS FOR PREPARATION THEREOF AND THEIR USE IN THE TREATMENT AND/OR PREVENTION OF TUBERCULOSIS” (QURETECH BIO AB, priority 2016, published 2023).

The subject of this assay is Mycobacterium tuberculosis Erdman. The assay can be described thus: Biofilm inhibition of Mycobacterium tuberculosis (ocular inspection). The assay is classed as cell-based. Conditions: for inhibition at 10 µM / inhibition at 25 µM / inhibition at 50 µM: biofilm inhibition, average of three or more measurements (100/50/0% scoring); for inhibition at 10 µM: read-out: Average % Inhibition at 10 μM; for inhibition at 25 µM: read-out: Average % Inhibition at 25 μM; for minimal effective concentration: concentration at which full biofilm inhibition took place, replicate determinations in one cell.

A value given as a limit tells only on which side of the number the result lay.

The inhibition is the share of the control response that was lost under treatment. Usually minimal effective concentration stands for the smallest amount tested that counted as effective. High values mean weaker potency, low ones greater potency.

For `O=C(O)[C@@H]1CSc2c(C3CC3)c(Cc3ccc(F)c4ccccc34)cc(=O)n21` [Example 3, (3R)-7-Cyclopropyl-6-[(4-fluoro-1-naphthyl)methyl]-4-oxo-1-thia-3a-aza-3-indancarboxylic acid], the inhibition at 10 µM is 100%, the inhibition at 25 µM amounted to 100%, the inhibition at 50 µM worked out at 100% and the minimal effective concentration is 50 µM.

For the compound `O=C(O)[C@@H]1CSc2c(C3CC3)c(COc3cccc4ccccc34)cc(=O)n21` [Example 7, (3R)-7-Cyclopropyl-6-[(1-naphthyloxy)methyl]-4-oxo-1-thia-3a-aza-3-indancarboxylic acid], the inhibition at 10 µM came out at 50%, the inhibition at 25 µM was 100%, the inhibition at 50 µM amounted to 100% and the minimal effective concentration was determined as 25 µM.

`CS(=O)(=O)NC(=O)[C@@H]1CSc2c(C3CC3)c(Cc3cccc4ccccc34)cc(=O)n21` [Example 26, {(3R)-7-Cyclopropyl-6-[(1-naphthyl)methyl]-4-oxo-1-thia-3a-aza-3-indanyl}(methylsulfonylamino)formaldehyde] had a minimal effective concentration of 50 µM. In other words, the double-digit micromolar range.

As for `Cn1cc(-c2c(COc3cccc4ccccc34)cc(=O)n3c2SCC3C(=O)O)c2ccccc21` (stereo not drawn) [Example 29, 7-(1-Methyl-1H-indol-3-yl)-6-[(1-naphthyloxy)methyl]-4-oxo-1-thia-3a-aza-3-indancarboxylic acid], the minimal effective concentration is 50 µM.

Consider `Cc1cccc(Cc2cc(=O)n3c(c2C2CC2)SC[C@H]3C(=O)O)c1` [Example 27, (3R)-7-Cyclopropyl-4-oxo-6-[(m-tolyl)methyl]-1-thia-3a-aza-3-indancarboxylic acid], for which the inhibition at 10 µM is 75%, the inhibition at 25 µM stood at 88%, the inhibition at 50 µM came to 100% and the minimal effective concentration was 25 µM.

`Cc1cccc(NCc2cc(=O)n3c(c2C2CC2)SC[C@H]3C(=O)O)c1C` [Example 43, (3R)-7-Cyclopropyl-4-oxo-6-[(2,3-xylidino)methyl]-1-thia-3a-aza-3-indancarboxylic acid]: the inhibition at 25 µM was determined as 50% and the inhibition at 50 µM was found to be 100%.

For the compound `CCOc1c(Cc2cccc3ccccc23)cc(=O)n2c1SC[C@H]2C(=O)O` [Example 45, (3R)-7-Ethoxy-6-[(1-naphthyl)methyl]-4-oxo-1-thia-3a-aza-3-indancarboxylic acid], the inhibition at 25 µM was 50% and at 50 µM the inhibition was 25%.

As to `O=c1cc(Cc2cccc3ccccc23)c(C2CC2)c2n1[C@H](c1nnn[nH]1)CS2` [Example 12, (3R)-7-Cyclopropyl-6-[(1-naphthyl)methyl]-3-(1H-1,2,3,4-tetrazol-5-yl)-1-thia-3a-aza-4-indanone], the inhibition at 10 µM worked out at 12%, the inhibition at 25 µM was 50% and the inhibition at 50 µM was determined as 87%.

With `CON(C)C(=O)[C@@H]1CSc2c(C3CC3)c(Cc3cccc4ccccc34)cc(=O)n21` [Example 11, (N-Methylmethoxyamino){(3R)-7-cyclopropyl-6-[(1-naphthyl)methyl]-4-oxo-1-thia-3a-aza-3-indanyl}formaldehyde], the inhibition at 10 µM stood at 75%, the inhibition at 25 µM turned out to be 38% and testing at 50 µM gave an inhibition of 88%.

With `CN(C)c1c(Cc2cccc3ccccc23)cc(=O)n2c1SC[C@H]2C(=O)O` [Example 40, (3R)-7-(Dimethylamino)-6-[(1-naphthyl)methyl]-4-oxo-1-thia-3a-aza-3-indancarboxylic acid], the inhibition at 10 µM amounted to 50%, the inhibition at 25 µM came to 100% and the inhibition at 50 µM stood at 50%.

As for `O=C(O)[C@@H]1CSc2c(C(F)(F)F)c(Cc3cccc4ccccc34)cc(=O)n21` [Example 47, (3R)-6-[(1-Naphthyl)methyl]-4-oxo-7-(trifluoromethyl)-1-thia-3a-aza-3-indancarboxylic acid], 50 µM produced 100% inhibition and the minimal effective concentration is greater than 50 µM.

On to `CCC(CO)NCCNC(CC)COC(=O)C1CSc2c(C3CC3)c(Cc3cccc4ccccc34)cc(=O)n21` (stereo not drawn) [Example 37, 2-{2-[1-(Hydroxymethyl)propylamino]ethylamino}butyl 7-cyclopropyl-6-[(1-naphthyl)methyl]-4-oxo-1-thia-3a-aza-3-indancarboxylate], for which the inhibition at 10 µM amounted to 100%, the inhibition at 25 µM was 100% and the inhibition at 50 µM was 100%.

For the compound `Cc1cccc(CCc2cc(=O)n3c(c2C(C)C)SC[C@H]3C(=O)O)c1` [Example 28, (3R)-7-Isopropyl-4-oxo-6-[2-(m-tolyl)ethyl]-1-thia-3a-aza-3-indancarboxylic acid], the minimal effective concentration was found to be 50 µM. This counts as double-digit micromolar.

Take `NC(=O)[C@@H]1CSc2c(C3CC3)c(Cc3cccc4ccccc34)cc(=O)n21` [Example 21, (3R)-7-Cyclopropyl-6-[(1-naphthyl)methyl]-4-oxo-1-thia-3a-aza-3-indancarboxamide]: the inhibition at 10 µM came to 12%, the inhibition at 25 µM is 100% and at 50 µM the inhibition was 100%.

Regarding `O=C(O)[C@@H]1CSc2c(C3CC3)c(Cc3cc4ccccc4s3)cc(=O)n21` [Example 2, (3R)-7-Cyclopropyl-4-oxo-6-{(7-thiabicyclo[4.3.0]nona-1,3,5,8-tetraen-8-yl)methyl}-1-thia-3a-aza-3-indancarboxylic acid], the inhibition at 10 µM was 63%, the inhibition at 25 µM came to 100%, the inhibition at 50 µM was 75% and the minimal effective concentration is 25 µM.

Take `O=C(O)[C@@H]1CSc2c(-c3cccs3)c(Cc3cccc4ccccc34)cc(=O)n21` [Example 17, (3R)-6-[(1-Naphthyl)methyl]-4-oxo-7-(2-thienyl)-1-thia-3a-aza-3-indancarboxylic acid]: the inhibition at 10 µM is 25%, the inhibition at 25 µM worked out at 38%, the inhibition at 50 µM amounted to 100% and the minimal effective concentration came out at 50 µM.

As to `O=C(O)[C@@H]1CSc2c(OCC3CC3)c(Cc3cccc4ccccc34)cc(=O)n21` [Example 50, (3R)-7-(Cyclopropylmethoxy)-6-[(1-naphthyl)methyl]-4-oxo-1-thia-3a-aza-3-indancarboxylic acid], 50 µM produced 25% inhibition.

In turn, `O=C(O)[C@@H]1CSc2c(C3CC3)c(Cc3ccc(Br)c4ccccc34)cc(=O)n21` [Example 30, (3R)-6-[(4-Bromo-1-naphthyl)methyl]-7-cyclopropyl-4-oxo-1-thia-3a-aza-3-indancarboxylic acid] showed a minimal effective concentration of 50 µM.

For `O=c1cc(Cc2cccc3ccccc23)c(C2CC2)c2n1[C@H](CO)CS2` [Example 16, (3R)-7-Cyclopropyl-3-(hydroxymethyl)-6-[(1-naphthyl)methyl]-1-thia-3a-aza-4-indanone], the inhibition at 10 µM amounted to 25%, the inhibition at 25 µM was 62% and the inhibition at 50 µM came to 100%.

Regarding `Cc1cc(=O)n2c(c1C1CC1)SC[C@H]2C(=O)O` [Example 24, (3R)-7-Cyclopropyl-6-methyl-4-oxo-1-thia-3a-aza-3-indancarboxylic acid], the inhibition at 25 µM came out at 12% and the inhibition at 50 µM worked out at 62%.

`COc1ccc(Cc2cc(=O)n3c(c2C2CC2)SCC3C(=O)O)c2ccccc12` (stereo not drawn) [Example 39, 7-Cyclopropyl-6-[(4-methoxy-1-naphthyl)methyl]-4-oxo-1-thia-3a-aza-3-indancarboxylic acid]: the inhibition at 10 µM was determined as 50%, the inhibition at 25 µM is 100% and the inhibition at 50 µM was 100%.

On to `O=C(NS(=O)(=O)c1ccccc1)[C@@H]1CSc2c(C3CC3)c(Cc3cccc4ccccc34)cc(=O)n21` [Example 22, {(3R)-7-Cyclopropyl-6-[(1-naphthyl)methyl]-4-oxo-1-thia-3a-aza-3-indanyl}(phenylsulfonylamino)formaldehyde], for which the inhibition at 25 µM stood at 38% and the inhibition at 50 µM came to 25%.

`O=C(O)C1CSc2c(C3CC3)c(Cc3cccc(C(F)(F)F)c3)cc(=O)n21` (stereo not drawn) [Example 36, 7-Cyclopropyl-4-oxo-6-{[m-(trifluoromethyl)phenyl]methyl}-1-thia-3a-aza-3-indancarboxylic acid]: the inhibition at 10 µM came to 100%, the inhibition at 25 µM was 100% and the inhibition at 50 µM was 100%.

`Cc1ccc(F)c(Cc2cc(=O)n3c(c2C2CC2)SC[C@H]3C(=O)O)c1` [Example 8, (3R)-7-Cyclopropyl-6-[(2-fluoro-5-methyl-phenyl)methyl]-4-oxo-1-thia-3a-aza-3-indancarboxylic acid]: the inhibition at 10 µM was 75%, the inhibition at 25 µM is 63%, the inhibition at 50 µM was 75% and the minimal effective concentration came out at 25 µM.

Consider `O=C(O)[C@@H]1CSc2c(C3CC3)c(Cc3cccc4ccccc34)c(CO)c(=O)n21` [Example 32, (3R)-7-Cyclopropyl-5-(hydroxymethyl)-6-[(1-naphthyl)methyl]-4-oxo-1-thia-3a-aza-3-indancarboxylic acid], for which the minimal effective concentration was 50 µM.

As for `O=C(O)[C@@H]1CSc2c(C3CC3)c(Cc3cccc(Cl)c3Cl)cc(=O)n21` [Example 20, (3R)-7-Cyclopropyl-6-[(2,3-dichlorophenyl)methyl]-4-oxo-1-thia-3a-aza-3-indancarboxylic acid], the inhibition at 10 µM came out at 75%, the inhibition at 25 µM worked out at 100%, 50 µM produced 100% inhibition and the minimal effective concentration was determined as 25 µM.

In turn, `COc1ccc2ccccc2c1Cc1cc(=O)n2c(c1C1CC1)SC[C@H]2C(=O)O` [Example 49, (3R)-7-Cyclopropyl-6-[(2-methoxy-1-naphthyl)methyl]-4-oxo-1-thia-3a-aza-3-indancarboxylic acid] displayed a minimal effective concentration of 25 µM.
